Results on seven compounds are retold here after paper PMC3544846, “Triphenylmethane Derivatives Have High In Vitro and In Vivo Activity against the Main Causative Agents of Cutaneous Leishmaniasis” (PLoS ONE, 2013).

Entries after “also recorded” stand apart in the source; their conditions may differ. Bounds are passed on as bounds.

The subject of series [1] is L. (L.) amazonensis intracellular amastigotes. The experiment in a line: Intracellular amastigote assay, L. (L.) amazonensis in BALB/c peritoneal macrophages. It is filed as cell-based. As to conditions: Leishmania amazonensis, in Mus musculus, 72 h; for IC50: Macrophage, intracellular amastigotes in macrophages. On the procedure: (§1) L. (L.) amazonensis and L. (V.) braziliensis promastigotes with 7–8 days and 5–6 days of growth, respectively, were harvested from cultures and added to a fresh Schneider's medium supplemented with 5% FCS, pH 6.0, and incubated at 32°C for 7 days for L. (L.) amazonensis and 4–5 days for L. (V.) braziliensis until a complete transformation to amastigote-like.
(§2) Peritoneal macrophages from BALB/c mice were harvested by washing with ice-cold RPMI 1640 medium, 4 days after induction with a 3% thioglycollate solution. Macrophages were diluted in RPMI 1640 medium (Sigma, Poole, United Kingdom) plus 10% FCS and plated in 24 well plates with a circular cover glass at a plating density of 2×10^5 macrophages/well. Macrophages were allowed to adhere for 2 h at 37°C and 5% CO2, when the medium was replaced by a fresh one and incubated overnight.
Macrophages were infected with amastigote-like parasites from L. (L.) amazonensis or L. (V.) braziliensis. The parasites were counted in a Neubauer's chamber and adjusted to a macrophage-amastigote ratio of 1∶8. Infected cultures were maintained at 37°C and 5% CO2. After 4 h, extracellular parasites were removed by washing, and a fresh medium containing either TPM compounds, no drug, or the reference drug. AmB (Fungizone®-Bristol- Meyers Squibb Pharmaceutics Ltda, Bedford, USA) was the chosen reference drug and was used at 0.2 µg/mL. After 72 h, the cover glass was removed from the well, washed in RPMI 1640 medium, set in microscope blades, fixed with methanol, and stained with Giemsa for evaluation. Under the immersion microscope, infection indexes (number of amastigotes/100× percentage of infected macrophages) were determined by counting the numbers of intracellular amastigotes in 100 macrophages. […] Each point was tested in triplicate and three independent experiments were then performed. Results are presented as mean and 95% CI [25].

Series [2] deals with L. (L.) major promastigotes. The series is described as follows: Promastigotes assay, L. (L.) major. The following applies: Leishmania major, 48 h incubation, mean of triplicates. The format is cell-based. On the procedure:
(§3) Promastigotes of L. (L.) amazonensis (IFLA/BR/1967/PH-8), L. (V.) braziliensis (MHOM/BR/75/M2903), and L. (L.) major (MHOM/IL/80/Friedlin) were maintained at 23°C in Schneider's Drosophila medium (Merck, Germany) supplemented with 20% heat-inactivated fetal calf serum (FCS) (Gibco, Eggenstein, Germany), pH 7.2. The same strain of L. (L.) amazonensis was used for both in vitro and in vivo experiments.
(§4) Promastigotes of L. (L.) amazonensis, L. (V.) braziliensis or L. (L.) major with 3 or 4 days of growth were plated in 24 well plates at a plating density of 1×10^6 parasites/mL in Schneider's medium supplemented with 20% FCS, pH 7.2. Drugs were diluted at the same medium and added to a parasite suspension in different concentrations, in triplicate. After 48 h of incubation, the parasites were counted and compared to the controls containing parasites in the absence of drugs. The drug concentration corresponding to 50% of the parasite growth inhibition was expressed as IC50. Three independent experiments were performed to confirm the results. Data are presented as mean and 95% CI.

Series [3] can be described thus: Cytotoxicity MTT assay on macrophages. It is filed as cell-based. The following applies: mouse, BALB/c peritoneal macrophages, 68 h + 4 h. On the procedure:
To evaluate the toxicity of selected compounds, an in vitro cytotoxicity assay on macrophages from BABL/c mice was performed through 3-(4,5-dimethyithiazol-2-yl)-2,5- diphenyltetrazolium bromide (MTT) (Sigma, Poole, United Kingdom) assay. Briefly, peritoneal macrophages from BALB/c mice were harvested, as described previously and plated in 96-well-flat-bottom microplates at a plating density of 1×10^5 macrophages/well. Macrophages were allowed to adhere for 2 h at 37°C and 5% CO2, at which time the medium was replaced by a fresh one and incubated over night. Then, the cells were exposed to ten points of serial dilution of TPM 1, 2, 6, 9 or GV ([…]), which were used to obtain a curve to determine the IC50. After 68 h of incubation, 10 µL of MTT (10 mg/mL) was added to each well and the plates were further incubated for 4 h. The enzymatic reaction was then stopped by addition of 100 µL of 50% isopropanol–10% sodium dodecyl sulfate solution. The optical density at 570 nm was quantified using an ELISA plate reader (BioSource, Inc., EUA). Three independent experiments, in triplicate, were performed to determine the cytotoxicity and data were expressed as mean and 95% CI. An experiment was also done to control the possibility of dye color interference on MTT assay. […] The optical density at 570 nm was measured using an ELISA plate reader (BioSource, Inc., EUA).
For orientation: Formazan colour is commonly taken as a measure of viable cells.

The subject of series [4] is L. (L.) amazonensis promastigotes. The series is described as follows: Promastigotes assay, L. (L.) amazonensis. The format is cell-based. As to conditions: Leishmania amazonensis, 48 h incubation, mean of triplicates. On the procedure:
as §3, §4

Series [5] deals with L (L.) amazonensis-infected BALB/c mice. The series is described as follows: In vivo topical gel treatment, parasite quantification at the site of infection by limiting dilution. Details: species or system Leishmania (Leishmania) amazonensis in BALB/c mice. As to conditions: twice a day, 20 days; for decrease of parasite burdens versus control / parasite burdens at site of infection (number of parasites): 1% gel; for parasite burdens at site of infection (number of parasites): 3 days after treatment, control group 1×10^7 (Figure 3A); for number of parasites within the lesion: control group 2.2×10^7 (Figure 3B). On the procedure:
The formulation of the GV and TPM 6 gel was prepared by mixing equal amounts of a 2% hydroxyethylcellulose gel (HEC; Natrosol 250 HR, Aqualon) and a 2% GV or TPM 6 hydroethanolic solution (mixture ethanol/water 1/5), until a homogeneous preparation had been attained. Therefore, GV and TPM 6 concentration in these formulations was 1%. The gel lower concentrations for dose-response experiments was obtained by diluting the 1% GV gel with 1% HEC gel.
BALB/c mice (females, 5–6 weeks old) were inoculated with 1×10^7 stationary growth phase promastigotes of L (L.) amazonensis through subcutaneous injections at the base of the tail, after trichotomy.
To evaluate the in vivo efficacy of GV and TPM 6, after development of ulcerated lesions (average diameter of 7 to 9 mm), BALB/c mice were divided into three groups. For treatment with TPM 6 and GV, lesions were covered with 50 µl of a gel formulation containing either 1% GV or 1% TPM 6, twice a day, for 20 days, using an Eppendorf pippetor. Control group: animals from control group were treated with the gel formulation without GV or TPM 6 (placebo). The treatment efficacy was evaluated through of the parasite quantification at the site of infection (see below).
Afterwards, a dose-effect study of GV was performed. BALB/c mice, presenting ulcerated lesions (average diameter of 7 to 9 mm), were divided into four groups, according to lesion size, to assure similar average lesion size among treated groups. The GV gel formulation was applied topically at 0.1, 0.5 or 1.0% twice a day, for 20 days. Control group: animals from control group were treated with the gel formulation without GV (placebo). The treatment efficacy was evaluated through of the parasite quantification at the site of infection (see below).
Three days after the interruption of treatment, the number of viable parasites at the site of infection was quantified by a limiting-dilution assay. Skin fragments from ulcerated lesions, were homogenized with a tissue grinder in Schneider's modified medium supplemented with 10% bovine fetal serum and 100 U/mL penicilin and 100 µg/mL streptomycin. Next, the tissue was centrifuged at 50 g for two minutes for sedimentation (Hitachi, Himac). The supernatant was separated and centrifuged again at 1700 g for 15 minutes (Express, Jouan). The pellet formed was resuspended in 1 mL of Schneider's modified medium supplemented with 10% FCS and 1% of a 100 U/mL penicillin and 100 µg/mL streptomycin solution. The homogenate was submitted to serial dilutions in duplicates in sterile 96 well culture plates and incubated at 23°C. Each well was examined for the presence of parasites, and the number of parasites was quantified by the highest dilution at which parasites could grow over a 7-day period. The lowest dilution that parasites were detected was 10^−1, which was considered the limit of quantification.

Series [6] concerns BALB/c mice infected with L. (L.) amazonensis. The following applies: intramuscular administration, doses equivalent to human chemotherapy; cited from earlier work.
Series [7] has as its system hamsters infected L. (V.) braziliensis. Details: method as in PMID 15652330. As to conditions: intramuscular administration, doses equivalent to human chemotherapy; cited from earlier work.
Series [8] concerns L. (V.) braziliensis intracellular amastigotes. The experiment in a line: Intracellular amastigote assay, L. (V.) braziliensis in BALB/c peritoneal macrophages. As to conditions: Leishmania braziliensis, in Mus musculus, 72 h. The format is cell-based, Leishmania (Viannia) braziliensis. On the procedure: as §1, §2
Macrophages were infected with amastigote-like parasites from L. (L.) amazonensis or L. (V.) braziliensis. The parasites were counted in a Neubauer's chamber and adjusted to a macrophage-amastigote ratio of 1∶8. Infected cultures were maintained at 37°C and 5% CO2. […] Under the immersion microscope, infection indexes (number of amastigotes/100× percentage of infected macrophages) were determined by counting the numbers of intracellular amastigotes in 100 macrophages. […]

Series [9] relates to L. (V.) braziliensis promastigotes. The experiment in a line: Promastigotes assay, L. (V.) braziliensis. The format is cell-based, Leishmania (Viannia) braziliensis. As to conditions: Leishmania braziliensis, 48 h incubation, mean of triplicates. On the procedure: as §3, §4
Where [10] appears, read: Peritoneal macrophage, control drug at 0.2 µg/ml, intracellular amastigotes, read-out: mean value of parasite growth inhibition.

As a reminder, the IC50 is the concentration at which inhibition is half-maximal. For `CN(C)c1ccc(C(=C2C=CC(=[N+](C)C)C=C2)c2ccc(N(C)C)cc2)cc1` [GV, gentian violet], the IC50 in [1] came to 170 nM; in series [2] it was 0.034 µM; in [4], 0.025 µM. In series [3], the half-maximal inhibitory concentration (IC50) at 68 h came out at 4030 nM. The “decrease of parasite burdens versus control” value in series [5] is given as “complete elimination of parasites”. For the same compound, the “parasite burdens at site of infection (number of parasites)” value in [5] is “no parasites were found”. Besides, the “number of parasites within the lesion” value in [5] (GV gel 0.1%) was 2.2×10^6; in series [5] (GV gel 0.5%), 2.62×10^5; in series [5] (GV gel 1%) it was “parasites were not detected; also recorded: complete elimination of parasite burden”.

`CCN(CC)c1ccc(C(=C2C=C(Cl)C=CC2=[Cl+])c2ccc(N(CC)CC)cc2)cc1` [TPM 3]: the IC50 in series [4] is above 1 µM.

Regarding meglumine antimoniate [Glucantime], the “reduction in lesions size” value in [6] and in [7] was “did not lead to significant reductions in lesions size” throughout.

With `CCN(CC)c1ccc(C(=C2C=C(C(c3ccc(Cl)cc3)C(Cl)(Cl)Cl)C=CC2=[Cl+])c2ccc(N(CC)CC)cc2)cc1` (stereo not drawn) [TPM 10], in series [4], the IC50 is above 4 µM.

One may read the inhibition as the drop in the measured response relative to a control, in per cent. Regarding `C[C@@H]1[C@H](O)[C@@H](C)/C=C/C=C/C=C/C=C/C=C/C=C/C=C/[C@H](O[C@@H]2O[C@H](C)[C@@H](O)[C@H](N)[C@@H]2O)C[C@@H]2O[C@](O)(C[C@@H](O)C[C@@H](O)[C@H](O)CC[C@@H](O)C[C@@H](O)CC(=O)O[C@H]1C)C[C@H](O)[C@H]2C(=O)O` [AmB, amphotericin B], the results for the inhibition at 0.2 µg/mL in series [1] (setting [10]) and in series [8] (setting [10]) were 99.5% and 98%, respectively.

As for `CCN(CC)c1ccc(C(=C2C=CC(C)C=C2)c2ccc(N(CC)CC)cc2)cc1` (stereo not drawn) [TPM 6], the concentration for half-maximal inhibition (IC50) was 0.063 µM in series [9]; 100 nM in series [1]; 100 nM in [8] (Macrophage, intracellular amastigotes in macrophages); 0.045 µM in series [2]; 0.031 µM in series [4]. Besides, the IC50 at 68 h in [3] was found to be 4160 nM. For the same compound, the “decrease of parasite burdens versus control” value in [5] is listed as “three orders of magnitude”. Moreover, in series [5], the “parasite burdens at site of infection (number of parasites)” value is 1×10^4.

In series [4], `CN(C)c1ccc(C(=C2C=CC(c3cnc(-c4ccc(-c5ncc(-c6ccccc6)o5)cc4)o3)C=C2)c2ccc(N(C)C)cc2)cc1` (stereo not drawn) [TPM 7] yielded an IC50 above 5 µM.
